# Measured values: ChEMBL document CHEMBL5518232, “Discovery of New Tricyclic Oxime Sampangine Derivatives as Potent Antifungal Agents for the Treatment of Cryptococcosis and Candidiasis” (J Med Chem, 2024)
# The source made the active and inactive calls. The calls are words filed in the database; no cut-off is given here.
# Legend:
# Candida albicans [1] = assay: Antifungal activity against Candida albicans 0304103 assessed as downregulation of GCA1 expression at 8 ug/ml incubated for 24 hrs in presence of (Z)-8-(methoxyimino)-3-methylthieno[3',2':4,5]benzo[1,2-d]isoxazol-4(8H)-one by RT-PCR analysis; type: functional, organism-based; settings: dose 8.0 µg/ml
# Candida albicans [2] = assay: Synergistic antifungal activity against Candida albicans 0304103 assessed as inhibition of fungal growth incubated for 48 hrs in presence of (Z)-8-(isopropoxyimino)-3-methylthieno[3',2':4,5]benzo[1,2-d]isoxazol-4(8H)-one by checkerboard microdilution assay; type: functional
# Candida albicans [3] = assay: Antifungal activity against Candida albicans 0304103 assessed as reduction in fungal growth incubated for 48 hrs by liquid based microdilution method; type: functional
# Candida albicans [4] = assay: Synergistic antifungal activity against Candida albicans 0304103 assessed as inhibition of fungal growth incubated for 48 hrs in presence of (Z)-9-(hydroxyimino)-3-methylnaphtho[2,3-d]isoxazol-4(9H)-one by checkerboard microdilution assay; type: functional
# Candida albicans [5] = assay: Inhibition of biofilm formation in Candida albicans 0304103 at 2 ug/ml incubated for 32 hrs by microplate based analysis; type: functional, organism-based; settings: dose 2.0 µg/ml
# Candida albicans [6] = assay: Synergistic antifungal activity against Candida albicans 0304103 assessed as inhibition of fungal growth incubated for 48 hrs in presence of (Z)-3-ethyl-8-(methoxyimino)thieno[3',2':4,5]benzo[1,2-d]isoxazol-4(8H)-one by checkerboard microdilution assay; type: functional
# Candida tropicalis = assay: Antifungal activity against Candida tropicalis 10186 assessed as reduction in fungal growth incubated for 48 hrs by liquid based microdilution method; type: functional
# Candida albicans [7] = assay: Antifungal activity against Candida albicans 0304103 assessed as reversal of ERG11 expression by measuring fold change at 8 ug/ml incubated for 24 hrs in presence of (Z)-8-(methoxyimino)-3-methylthieno[3',2':4,5]benzo[1,2-d]isoxazol-4(8H)-one by RT-PCR analysis (reference value: 8.8); type: functional; settings: dose 8 µg/ml
# Candida albicans [8] = assay: Antifungal activity against Candida albicans 0304103 assessed as downregulation of CDR1 expression at 8 ug/ml incubated for 24 hrs in presence of (Z)-8-(methoxyimino)-3-methylthieno[3',2':4,5]benzo[1,2-d]isoxazol-4(8H)-one by RT-PCR analysis; type: functional, organism-based; settings: dose 8.0 µg/ml
# Candida albicans [9] = assay: Antifungal activity against Candida albicans 0304103 assessed as downregulation of ERG11 expression at 8 ug/ml incubated for 24 hrs in presence of (Z)-8-(methoxyimino)-3-methylthieno[3',2':4,5]benzo[1,2-d]isoxazol-4(8H)-one by RT-PCR analysis; type: functional, organism-based; settings: dose 8.0 µg/ml
# Cryptococcus neoformans [10] = assay: Inhibition of biofilm formation in Cryptococcus neoformans H99 at 64 ug/ml incubated for 24 hrs by microplate based analysis relative to control; type: functional
# Candida albicans [11] = assay: Synergistic antifungal activity against Candida albicans 0304103 assessed as inhibition of fungal growth incubated for 48 hrs in presence of (Z)-8-(methoxyimino)-3-propylthieno[3',2':4,5]benzo[1,2-d]isoxazol-4(8H)-one by checkerboard microdilution assay; type: functional
# Candida albicans [12] = assay: Synergistic antifungal activity against Candida albicans 0304103 assessed as inhibition of fungal growth incubated for 48 hrs in presence of (Z)-9-(methoxyimino)-3-methylnaphtho[2,3-d]isoxazol-4(9H)-one by checkerboard microdilution assay; type: functional
# Candida albicans [13] = assay: Antifungal activity against Candida albicans SC5314 assessed as reduction in fungal growth incubated for 48 hrs by liquid based microdilution method; type: functional
# Candida albicans [14] = assay: Antifungal activity against Candida albicans 0304103 assessed as downregulation of RLM1 expression at 8 ug/ml incubated for 24 hrs in presence of (Z)-8-(methoxyimino)-3-methylthieno[3',2':4,5]benzo[1,2-d]isoxazol-4(8H)-one by RT-PCR analysis; type: functional, organism-based; settings: dose 8.0 µg/ml
# Cryptococcus neoformans [15] = assay: Antifungal activity against Cryptococcus neoformans ATCC 34877 assessed as reduction in fungal growth incubated for 72 hrs by liquid based microdilution method; type: functional
# Candida albicans [16] = assay: Synergistic antifungal activity against Candida albicans 0304103 assessed as inhibition of fungal growth incubated for 48 hrs in presence of (4Z,8Z)-benzo[1,2-b:4,5-b']dithiophene-4,8-dione O,O-dimethyl dioxime by checkerboard microdilution assay; type: functional
# Candida albicans [17] = assay: In vivo antifungal activity against Candida albicans 0304103 infected in […] ICR mouse model assessed as reduction in fungal burden in kidney at 5 mg/kg, ip measured for 5 days in presence of (Z)-8-(methoxyimino)-3-methylthieno[3',2':4,5]benzo[1,2-d]isoxazol-4(8H)-one (reference value: 7.37 log10CFU/g); type: functional; settings: time 5 day
# Candida albicans [18] = assay: Synergistic antifungal activity against Candida albicans 0304103 assessed as inhibition of fungal growth incubated for 48 hrs in presence of (Z)-8-(ethoxyimino)-3-methylthieno[3',2':4,5]benzo[1,2-d]isoxazol-4(8H)-one by checkerboard microdilution assay; type: functional
# Candida albicans [19] = assay: Synergistic antifungal activity against Candida albicans 0304103 assessed as inhibition of fungal growth incubated for 48 hrs in presence of (Z)-9-(ethoxyimino)-3-methylnaphtho[2,3-d]isoxazol-4(9H)-one by checkerboard microdilution assay; type: functional
# Candida albicans [20] = assay: Synergistic antifungal activity against Candida albicans 0304103 assessed as inhibition of fungal growth incubated for 48 hrs in presence of ((Z)-8-(methoxyimino)-3-methylthieno[3',2':4,5]benzo[1,2-d]isoxazol-4(8H)-one by checkerboard microdilution assay; type: functional
# Cryptococcus neoformans [21] = assay: Antifungal activity against Cryptococcus neoformans H99 assessed as reduction in fungal growth incubated for 72 hrs by liquid based microdilution method; type: functional
# [22] = Antifungal activity against Cryptococcus gattii VGI ATCC 14116 assessed as reduction in fungal growth incubated for 72 hrs by liquid based microdilution method; type: functional
# Candida albicans [23] = assay: Synergistic antifungal activity against Candida albicans 0304103 assessed as inhibition of fungal growth incubated for 48 hrs in presence of (Z)-8-(hydroxyimino)-3-methylthieno[3',2':4,5]benzo[1,2-d]isoxazol-4(8H)-one by checkerboard microdilution assay; type: functional
# Candida albicans [24] = assay: Synergistic antifungal activity against Candida albicans 0304103 assessed as inhibition of fungal growth incubated for 48 hrs in presence of (Z)-8-(methoxyimino)benzo[1,2-b:4,5-b']dithiophen-4(8H)-one by checkerboard microdilution assay; type: functional
# Nakaseomyces glabratus = assay: Antifungal activity against Candida glabrata 9073 assessed as reduction in fungal growth incubated for 48 hrs by liquid based microdilution method; type: functional
# Candida albicans [25] = assay: In vivo antifungal activity against Candida albicans SC5314 infected in […] ICR mouse model assessed as reduction in fungal burden in kidney at 0.5 mg/kg, ip measured for 5 days in presence of (Z)-8-(methoxyimino)-3-methylthieno[3',2':4,5]benzo[1,2-d]isoxazol-4(8H)-one; type: functional; settings: time 5 day
# Candida albicans [26] = assay: Synergistic antifungal activity against Candida albicans 0304103 assessed as inhibition of fungal growth incubated for 48 hrs in presence of (Z)-8-(methoxyimino)-3-methylbenzofuro[6,5-d]isoxazol-4(8H)-one by checkerboard microdilution assay; type: functional
# Candida albicans [27] = assay: Antifungal activity against Candida albicans 0304103 assessed as downregulation of GCA2 expression at 8 ug/ml incubated for 24 hrs in presence of (Z)-8-(methoxyimino)-3-methylthieno[3',2':4,5]benzo[1,2-d]isoxazol-4(8H)-one by RT-PCR analysis; type: functional, organism-based; settings: dose 8.0 µg/ml
# Candida albicans [28] = assay: Antifungal activity against Candida albicans 0304103 assessed as downregulation of TEC1 expression at 8 ug/ml incubated for 24 hrs in presence of (Z)-8-(methoxyimino)-3-methylthieno[3',2':4,5]benzo[1,2-d]isoxazol-4(8H)-one by RT-PCR analysis; type: functional, organism-based; settings: dose 8.0 µg/ml
# Candida albicans [29] = assay: Antifungal activity against Candida albicans 0304103 assessed as downregulation of APH5 expression at 8 ug/ml incubated for 24 hrs in presence of (Z)-8-(methoxyimino)-3-methylthieno[3',2':4,5]benzo[1,2-d]isoxazol-4(8H)-one by RT-PCR analysis; type: functional, organism-based; settings: dose 8.0 µg/ml
# Candida albicans [30] = assay: Inhibition of biofilm formation in Candida albicans 0304103 at 8 ug/ml incubated for 24 hrs in presence of (Z)-8-(methoxyimino)-3-methylthieno[3',2':4,5]benzo[1,2-d]isoxazol-4(8H)-one by microplate based analysis relative to control; type: functional
smiles,measurement,setting,value
OC(Cn1cncn1)(Cn1cncn1)c1ccc(F)cc1F [FLUCONAZOLE],Activity,Candida albicans [1],Active
same,MIC80,Candida albicans [2],2 µg/mL
same,MIC80,Candida albicans [3],> 64 µg/mL
same,MIC80,Candida albicans [4],2 µg/mL
same,inhibition,Candida albicans [5],inactive
same,MIC80,Candida albicans [6],1 µg/mL
same,MIC80,Candida tropicalis,> 64 µg/mL
same,fold change (FC),Candida albicans [7],0.8
same,Activity,Candida albicans [8],Active
same,Activity,Candida albicans [9],Active
same,inhibition at 64 µg/mL,Cryptococcus neoformans [10],80%
same,MIC80,Candida albicans [11],8 µg/mL
same,MIC80,Candida albicans [12],1 µg/mL
same,MIC80,Candida albicans [13],0.5 µg/mL
same,Activity,Candida albicans [14],Active
same,MIC80,Cryptococcus neoformans [15],1 µg/mL
same,MIC80,Candida albicans [16],> 64 µg/mL
same,Activity,Candida albicans [17],5.31 log10CFU/g
same,MIC80,Candida albicans [18],1 µg/mL
same,MIC80,Candida albicans [19],0.5 µg/mL
same,MIC80,Candida albicans [20],1 µg/mL
same,MIC80,Cryptococcus neoformans [21],2 µg/mL
same,MIC80,[22],1 µg/mL
same,MIC80,Candida albicans [23],4 µg/mL
same,MIC80,Candida albicans [24],1 µg/mL
same,MIC80,Nakaseomyces glabratus,32 µg/mL
same,Activity,Candida albicans [25],5.02 log10CFU/g
same,MIC80,Candida albicans [26],2 µg/mL
same,Activity,Candida albicans [27],Active
same,Activity,Candida albicans [28],Active
same,Activity,Candida albicans [29],Active
same,inhibition at 8 µg/mL,Candida albicans [30],50%
